Experimental data taken from patent US9204644B2, “Nanoparticles compositions containing polymers and anthranilic acid diamide insecticides for propagule coating” (priority 2011, dated 2015).

System: 2nd instar larva of Spodoptera frugiperda
Experiment: Laboratory test of larval mortality on maize leaves
Assay type: in vivo

CNC(=O)c1cc(Cl)cc(C)c1NC(=O)c1cc(Br)nn1-c1ncccc1Cl [Compound 2, 3-bromo-N-[4-chloro-2-methyl-6-[(methylamino)carbonyl]phenyl]-1-(3-chloro-2-pyridinyl)-1H-pyrazole-5-carboxamide]
concentration in leaf tissue needed to achieve 100% mortality within 72 h: 0.037 micrograms per g of tissue
concentration in leaf tissue resulting in 50% mortality within 72 h: 0.033 micrograms per g of leaf tissu
